System: insulinase
Experiment: insulinase inhibitory activity measurement (method of Duckworth et al.)
Assay type: biochemical
Settings: fractions of commercial bacitracin, result in words
Procedure: The desired fraction is believed to have a molecular weight of about 1400, approximately the same as bacitracin A or F. Their anti-insulinase and antibacterial activities can be assayed in conventional manner. For example, the insulinase inhibitory activity was measured according to the method of Duckworth, et al., Proc. Nat. Acad. Sci., 69, 3698-3702 (1972) and the anti-bacterial activity by the method of Patrick, et al., Antibiotics and Chemotherapy, 1, 133-137 (1951).
A 350 ml bed volume of CM-Sepharose in a packed column (2.8 x 56 cm) was equilibrated with 0.05M ammonium acetate, pH 4.5 One gram of commercial bacitracin dissolved in 50 ml of buffer was applied to the packed column. The material was eluted with 2 l of equilibrating buffer followed by 350 ml of 1M ammonium acetate pH 4.5 buffer. Five ml fractions were collected and absorbance measurements at 252, 280 and 290 nm were made. In addition, insulinase inhibitory activity measurements were made on each peak. […] The peaks were collected, lyophilized, weighed and dissolved in water at 5 mg/ml concentration for specific activity measurements. The material collected with the second buffer contained 5-10 % of the total weight of the applied material and 90 % of the total insulinase inhibitory capacity. The specific activity of this material was 10-12 times that of the starting commercial material.

Row | Substance | insulinase inhibitory activity | insulinase inhibitory activity (listed as Bacitracin A) | insulinase inhibitory activity (listed as Bacitracin F)
1 | bacitracin A | substantially no anti-insulinase activity | negligible | 
2 | bacitracin F | substantially no anti-insulinase activity |  | negligible
